Results: patent US20260256777A1, “DEGRADANT COMPOUND IN A MEDICAMENT” (VISUS THERAPEUTICS, INC., priority 2020, published 2026)

What was measured:
[1] = Forced degradation samples analysed by prototype HPLC method; assay type: physicochemical
Protocol: A new prototype HPLC method has been developed to study early eluting peaks not well separated by the method described in Example 3, Table 3. The method better separates early eluting brimonidine-related impurities. All sample solutions from the Phase I and II stress studies were analyzed with the prototype method. […] This was consistent with the analysis results per the method described in Example 4, Table 6. Another unknown impurity, impurity B, was also observed in the chromatogram for the 0.1 M NaOH and heat-stressed combined API sample at RT 3.44 min with a level of ~0.05% relative to the brimonidine peak area. The extracted UV spectrum for impurity B is consistent with the UV Spectrum previously observed in stability samples.

[2] = Forced degradation of combined brimonidine tartrate and carbachol APIs, LC-PDA analysis; assay type: physicochemical; conditions: 66 hours
Protocol: Following the procedures shown in Table 9, the two APIs combined were stressed with moisture and heat (Sample A), 0.1 M HCl at room temperature (Sample B), 0.1 M NaOH at room temperature (Sample C), vehicle and heat (Sample D), 1 M HCl at room temperature (Sample E), and 1 M NaOH at room temperature (Sample F) for 66 hours. A drug product vehicle was stressed under heat for 66 hours as a control (Sample G). After the stress treatment was completed, all samples were removed from condition, allowed to cool to room temperatures, then neutralized where appropriate, and brought to a similar concentration level. The samples were capped and shaken until all the materials in each sample were dissolved. Then each sample solution was diluted in the HPLC method diluent used in Example 4, Table 6 and mixed well. For retention time verification purposes, a reference sample solution was also prepared using a carbachol/brimonidine six month accelerated stability sample (Table 8). The brimonidine tartrate analytical concentration for all of the degraded and the reference sample solutions was 0.1 mg/mL.
All of the sample solutions prepared as described in Table 9 were analyzed per the HPLC-PDA method shown in Example 4, Table 6. […] The level of the impurity present in both base-stressed samples is about 0.02% relative to that of the brimonidine peak. The extracted UV spectra for the RRT 0.91 impurity from the carbachol/brimonidine formulation (6 month accelerated stability sample) and the two base-stressed samples are similar for each.
The Phase I forced degradation study confirmed that the RRT 0.91 impurity was formed when the two APIs together were stressed under basic (either 0.1 M NaOH or 1 M NaOH) conditions and at room temperatures. To study temperature impact on the reaction, the two APIs, brimonidine tartrate and carbachol, were combined and stressed under both base and heat (45° C.) conditions simultaneously.
Additionally, to further confirm that the presence of both APIs was needed for the formation of the RRT 0.91 peak, individual API samples were also stressed in the same way. […] After the stress treatment was completed, all samples (H-M) were removed from condition, allowed to cool to room temperatures, neutralized where appropriate, and brought to a similar concentration level. The samples were capped and shaken until all the materials in each flask were dissolved. Then each sample solution was diluted in the HPLC method diluent (Example 4, Table 6) and mixed well.
All the base and heat-stressed sample solutions prepared as described in Table 10 were analyzed by LC-PDA analysis per the method shown in Example 4, Table 6. […] This further confirmed that the RRT 0.91 impurity was a reaction product of the two APIs.

Row | impurity B level relative to the brimonidine peak area ([1]; 0.1 M NaOH and heat-stressed combined API sample) | impurity B level ([1]; other base-stressed combined APIs) | Relative % Peak Area for RRT 0.91 Impurity (Versus Peak Area of Brimonidine) ([2]; 0.1M NaOH, 45° C.) | Relative % Peak Area for RRT 0.91 Impurity (Versus Peak Area of Brimonidine) ([2]; 0.1M NaOH, room temperature) | Relative % Peak Area for RRT 0.91 Impurity (Versus Peak Area of Brimonidine) ([2]; 0.1M NaOH, room temperature, listed as RRT 0.91 impurity) | Relative % Peak Area for RRT 0.91 Impurity (Versus Peak Area of Brimonidine) ([2]; 1M NaOH, 45° C.) | Relative % Peak Area for RRT 0.91 Impurity (Versus Peak Area of Brimonidine) ([2]; 1M NaOH, room temperature) | Relative % Peak Area for RRT 0.91 Impurity (Versus Peak Area of Brimonidine) ([2]; 1M NaOH, room temperature, listed as RRT 0.91 impurity) | SMILES
1 | ~ 0.05% | very low levels | – | – | – | – | – | – | NC(=O)NCCNC(=O)Nc1ccc2nccnc2c1Br [Impurity B, 1-(5-bromoquinoxalin-6-yl)-3-(2-ureidoethyl)urea]
2 | – | – | 0.15% | 0.02% | about 0.02% | 0.03% | 0.02% | about 0.02% | NC(=O)N1CCN=C1Nc1ccc2nccnc2c1Br [RRT 0.91 Impurity, 2-((5-bromoquinoxalin-6-yl)amino)-4,5-dihydro-1H-imidazole-1-carboxamide]
